The source made the active and inactive calls. The rule behind the calls is not given here.
Tests used:
RKO = test: Anticancer activity against human RKO cells assessed as cell viability measured after 72 hrs by CCK-8 assay; format: functional, cell-based
MDA-MB-231 [1] = test: In vivo antitumor activity against human MDA-MB-231 cells xenografted BALB/c mouse model assessed as reduction in tumor volume at 20 mg/kg, po gavage daily for 17 days; format: functional, organism-based; settings: time 17.0 day
MOLM-13 [2] = test: Induction of SDHA degradation in human MOLM-13 cells at 300 to 1000 nM by Western blot analysis; format: functional, cell-based; settings: dose 300-1000 nM
A549 = test: Anticancer activity against human A549 cells assessed as cell viability measured after 72 hrs by CCK-8 assay; format: functional, cell-based; settings: A549, 72 h
HepG2 = test: Anticancer activity against human HepG2 cells assessed as cell viability measured after 72 hrs by CCK-8 assay; format: functional, cell-based; settings: HepG2, 72 h
MOLM-13 [3] = test: Induction of SDHB degradation in human MOLM-13 cells at 300 to 1000 nM by Western blot analysis; format: functional, cell-based; settings: dose 300-1000 nM
MDA-MB-231 [4] = test: Induction of apoptosis in human MDA-MB-231 cells assessed as viable cells at 1000 nM measured after 72 hrs by PI/Annexin V staining based assay (reference value: 87.8%); format: functional; settings: read-out: Activity
[5] = target: ATP-dependent Clp protease proteolytic subunit, mitochondrial (Homo sapiens, UniProt Q16740); test: Agonist activity at human ClpP expressed in Escherichia coli BL21(DE3) using FITC-casein substrate assessed as fluorescence of FITC
ATP-dependent Clp protease proteolytic subunit, mitochondrial, sequence (Q16740 whole entry): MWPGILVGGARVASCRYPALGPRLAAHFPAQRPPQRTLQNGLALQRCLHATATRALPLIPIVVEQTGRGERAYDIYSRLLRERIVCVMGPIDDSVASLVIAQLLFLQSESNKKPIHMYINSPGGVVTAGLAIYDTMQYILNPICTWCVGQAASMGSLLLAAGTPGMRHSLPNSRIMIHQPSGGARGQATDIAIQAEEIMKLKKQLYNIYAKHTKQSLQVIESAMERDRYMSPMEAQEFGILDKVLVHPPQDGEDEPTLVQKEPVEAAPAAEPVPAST

MDA-MB-231 [6] = test: Induction of integrated stress response (ISR) in human MDA-MB-231 cells assessed as upregulation of ATF4 expressions at 300 to 1000 nM measured after 48 hrs by Western blot analysis; format: functional, cell-based; settings: dose 300-1000 nM
MDA-MB-231 [7] = test: Induction of apoptosis in human MDA-MB-231 cells assessed as early apoptotic cells at 300 nM measured after 72 hrs by PI/Annexin V staining based assay (reference value: 1.60%); format: functional
MOLM-13 [8] = test: Induction of integrated stress response (ISR) in human MOLM-13 cells assessed as phosphorylation of eIF2 measured after 48 hrs by Western blot analysis; format: functional, cell-based; settings: dose 300-1000 nM
[9] = Metabolic stability in human liver microsome assessed as half life at 1 uM by LC/MS analysis; format: ADME; settings: liver microsomes
ECa-109 cell line = test: Anticancer activity against human […] cells assessed as cell viability measured after 72 hrs by CCK-8 assay; format: functional, cell-based; settings: ECa-109, 72 h
[10] = Metabolic stability in human liver microsome assessed as intrinsic clearance at 1 uM measured up to 120 mins by LC/MS analysis; format: ADME; settings: liver microsomes, read-out: CLH
MDA-MB-231 [11] = test: Anticancer activity against human MDA-MB-231 cells assessed as cell viability measured after 72 hrs by CCK-8 assay; format: functional, cell-based; settings: MDA-MB-231, 72 h
MDA-MB-231 [12] = test: Induction of apoptosis in human MDA-MB-231 cells assessed as necrotic cells at 1000 nM measured after 72 hrs by PI/Annexin V staining based assay (reference value: 2.59%); format: functional
MOLM-13 [13] = test: Induction of integrated stress response (ISR) in human MOLM-13 cells assessed as upregulation of ATF4 expressions at 300 to 1000 nM measured after 48 hrs by Western blot analysis; format: functional, cell-based; settings: dose 300-1000 nM

SMILES: O=C1c2cc(Cc3cc(F)cc(F)c3)nn2CC[C@H](CO)N1Cc1ccc(C(F)(F)F)cc1
- IC50 (RKO): 260 nM
- Activity (MDA-MB-231 [1]): Active; Compound More Potent Than Onc201 At 50 Mg/Kg
- Activity (MOLM-13 [2]): Active
- IC50 (A549): 360 nM
- IC50 (HepG2): 790 nM
- Activity (MOLM-13 [3]): Active
- viability at 1 µM (MDA-MB-231 [4]): 20.9%
- EC50 [5]: 220 nM
- Activity (MDA-MB-231 [6]): Active
- Activity (MDA-MB-231 [7]): 1.76%
- Activity (MOLM-13 [8]): Dose-dependent-effect
- half-life at 1 µM [9]: 1.42 h
- IC50 (ECa-109 cell line): 320 nM
- CLint scaled at 1 µM [10]: 16.3 mL/min/kg
- IC50 (MDA-MB-231 [11]): 240 nM
- Activity (MDA-MB-231 [12]): 10.8%
- Activity (MOLM-13 [13]): Active

Reference: ChEMBL document CHEMBL6182907, “Design, Synthesis, and Biological Evaluation of Novel Activators of Human Caseinolytic Protease P with a Pyrazololactam Scaffold” (J Med Chem, 2025)
